Literature values as cited in US20030049260A1, “Method of improving cognitive function” (priority 2001, published 2003).

Settings: for Change in Symbol Digit: max. increase: duration 12 weeks, An J Geriatr Psychiatry 1999;7:221-227

For `CN[C@H]1CC[C@@H](c2ccc(Cl)c(Cl)c2)c2ccccc21` [Sertraline], the “Change in Symbol Digit: max. increase” value is listed as 21% increase.

In the case of `CN[C@@H](C)Cc1ccccc1` [Methamphetamine], the “Change in Symbol Digit: reduction in drug group as compared to a control group” value (in vivo) is listed as “Significant 14%”.

For `Cc1nnc2n1-c1ccc(Cl)cc1C(c1ccccc1Cl)=NC2` [Triazolam], the “Change in Symbol Digit: reduction” value (in vivo) is given as 10-20% reduction.

For `CNC1(c2ccccc2Cl)CCCCC1=O` (stereo not drawn) [Ketamine], the “Change in Symbol Digit: decline” value (in vivo) is listed as 5-10% decline.

In the case of `CNCCC(Oc1ccc(C(F)(F)F)cc1)c1ccccc1` (stereo not drawn) [Fluoxetine], the “Change in Symbol Digit: max. increase” value is given as 10% increase.

In the case of `CC(C)NCC(O)COc1cccc2ccccc12` (stereo not drawn) [Propranolol], the “Change in Symbol Digit: decline as compared to placebo” value (duration 8 hours, Br. J. Clin Pharmac 1984;17:31-36) is listed as 10-15% decline.
